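Compound exposure: 48 hours, 5 concentrations, 96-well plates. Abbreviation: GI50, concentration required for 50% inhibition of growth.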 Calls of active or inactive are those of the source. No stated cut-off is given here; in the data, active = GI50 up to about 1.1 µM and inactive = higher.
Experiments:
Assay in all cases: NCI tumour cell line growth inhibition, 48 h
CCRF-CEM = test system: CCRF-CEM
UACC-62 = test system: UACC-62
OVCAR-8 = test system: OVCAR-8
UO-31 = test system: UO-31
SF-539 = test system: SF-539
RPMI-8226 = test system: RPMI-8226
NCI/ADR-RES = test system: NCI/ADR-RES
MDA-MB-435 = test system: MDA-MB-435
KM12 = test system: KM12
A549 = test system: A549
COLO 205 = test system: COLO 205
SR = test system: SR
HL-60 = test system: HL-60
T47D = test system: T47D
EKVX = test system: EKVX
TK-10 = test system: TK-10
HT-29 = test system: HT-29
NCI-H460 = test system: NCI-H460
OVCAR-4 = test system: OVCAR-4
NCI-H226 = test system: NCI-H226

Row | SMILES | GI50 (CCRF-CEM) | GI50 (UACC-62) | GI50 (OVCAR-8) | GI50 (UO-31) | GI50 (SF-539) | GI50 (RPMI-8226) | GI50 (NCI/ADR-RES) | GI50 (MDA-MB-435) | GI50 (KM12) | GI50 (A549) | GI50 (COLO 205) | GI50 (SR) | GI50 (HL-60) | GI50 (T47D) | GI50 (EKVX) | GI50 (TK-10) | GI50 (HT-29) | GI50 (NCI-H460) | GI50 (OVCAR-4) | GI50 (NCI-H226)
1 | S=C(NCCc1ccccn1)N/N=C(\c1ccccc1)c1ccccn1 | < 0.01 µM (active) | 1.03 µM (active) | < 0.01 µM (active) | 1.23 µM (inactive) | 0.63 µM (active) | 0.0634 µM (active) | 0.0933 µM (active) | 5.86 µM (inactive) | 2.76 µM (inactive) | 3.4 µM (inactive) | < 0.01 µM (active) | 1.36 µM (inactive) | < 0.0359 µM (active) | < 0.0444 µM (active) | 0.0525 µM (active) | 1.33 µM (inactive) | < 0.01 µM (active) | 0.179 µM (active) | 3.01 µM (inactive) | –
2 | Cc1cc(S(=O)(=O)Nc2nc(N)nc(N3CCOCC3)n2)c(SCC(=O)O)cc1Cl | > 10 µM (inactive) | – | > 10 µM (inactive) | > 10 µM (inactive) | > 10 µM (inactive) | > 10 µM (inactive) | > 10 µM (inactive) | – | > 10 µM (inactive) | > 10 µM (inactive) | > 10 µM (inactive) | > 10 µM (inactive) | > 10 µM (inactive) | > 10 µM (inactive) | > 10 µM (inactive) | > 10 µM (inactive) | > 10 µM (inactive) | > 10 µM (inactive) | > 10 µM (inactive) | > 10 µM (inactive)
3 | CC(C)(C)C1=CC(C)(n2[nH]c(=O)n(-c3ccccc3)c2=O)C=C(C(C)(C)C)C1=O | – | 75.3 µM (inactive) | > 100 µM (inactive) | 44.9 µM (inactive) | > 100 µM (inactive) | 25.2 µM (inactive) | > 100 µM (inactive) | > 100 µM (inactive) | > 100 µM (inactive) | > 100 µM (inactive) | > 100 µM (inactive) | – | – | 59.6 µM (inactive) | – | > 100 µM (inactive) | > 100 µM (inactive) | > 100 µM (inactive) | > 100 µM (inactive) | > 100 µM (inactive)
4 | c1ccc2c3c(ccc2c1)CSCc1ccc2ccccc2c1-3 | > 100 µM (inactive) | > 100 µM (inactive) | > 100 µM (inactive) | > 100 µM (inactive) | 54.1 µM (inactive) | > 100 µM (inactive) | > 100 µM (inactive) | > 100 µM (inactive) | > 100 µM (inactive) | > 100 µM (inactive) | > 100 µM (inactive) | 33 µM (inactive) | > 10 µM (inactive) | > 100 µM (inactive) | > 100 µM (inactive) | > 100 µM (inactive) | > 100 µM (inactive) | – | 26.8 µM (inactive) | –
5 | CC(C(=O)COCc1ccccc1)P1(=O)OC(C)(C)CN1C(C)(C)C (stereo not given) | > 100 µM (inactive) | > 100 µM (inactive) | > 100 µM (inactive) | > 100 µM (inactive) | > 100 µM (inactive) | > 100 µM (inactive) | > 100 µM (inactive) | > 100 µM (inactive) | > 100 µM (inactive) | > 100 µM (inactive) | > 100 µM (inactive) | – | > 100 µM (inactive) | > 100 µM (inactive) | > 100 µM (inactive) | > 100 µM (inactive) | > 100 µM (inactive) | > 100 µM (inactive) | 28.8 µM (inactive) | > 100 µM (inactive)
6 | Oc1cnnc2nc3ccccc3n12 | > 100 µM (inactive) | – | > 100 µM (inactive) | > 100 µM (inactive) | > 100 µM (inactive) | – | > 100 µM (inactive) | > 100 µM (inactive) | > 100 µM (inactive) | > 100 µM (inactive) | > 100 µM (inactive) | – | > 100 µM (inactive) | > 100 µM (inactive) | 34.8 µM (inactive) | > 100 µM (inactive) | > 100 µM (inactive) | > 100 µM (inactive) | > 100 µM (inactive) | > 100 µM (inactive)
7 | Cc1ccc(/N=N/c2c(O)c(C(=O)Nc3ccccc3)cc3ccccc23)c([N+](=O)[O-])c1 | > 100 µM (inactive) | > 100 µM (inactive) | > 100 µM (inactive) | > 100 µM (inactive) | – | > 100 µM (inactive) | > 100 µM (inactive) | > 100 µM (inactive) | > 100 µM (inactive) | > 100 µM (inactive) | > 100 µM (inactive) | – | – | > 100 µM (inactive) | > 100 µM (inactive) | > 100 µM (inactive) | > 100 µM (inactive) | – | > 100 µM (inactive) | –
8 | CCC(C)C(NC(=O)C(CCCCN)NC(=O)C(NC(=O)C(CCC(N)=O)NC(=O)C(CCCNC(=N)N)NC(C)=O)C(C)CC)C(=O)NC(Cc1c[nH]c2ccccc12)C(=O)NC(Cc1ccccc1)C(=O)NC(CCC(N)=O)C(=O)NC(CC(N)=O)C(=O)NC(CCCNC(=N)N)C(=O)NC(CCCNC(=N)N)C(=O)NC(CCSC)C(=O)NC(CCCCN)C(=O)NC(Cc1c[nH]c2ccccc12)C(=O)NC(CCCCN)C(=O)NC(CCCCN)C(N)=O (stereo not given) | 22.4 µM (inactive) | > 50 µM (inactive) | 49.2 µM (inactive) | – | 19.7 µM (inactive) | 11.2 µM (inactive) | > 50 µM (inactive) | 17.5 µM (inactive) | 14.5 µM (inactive) | > 50 µM (inactive) | 38.3 µM (inactive) | > 50 µM (inactive) | > 50 µM (inactive) | 16.3 µM (inactive) | > 50 µM (inactive) | > 50 µM (inactive) | > 50 µM (inactive) | 15.5 µM (inactive) | > 50 µM (inactive) | –
9 | O=C1C=C(Cl)C(=O)C(c2ccc(Cl)cc2)=C1 | 3.35 µM (inactive) | 17.4 µM (inactive) | 18.2 µM (inactive) | 14.8 µM (inactive) | 16.9 µM (inactive) | 12.1 µM (inactive) | 26.4 µM (inactive) | 17.9 µM (inactive) | 32.3 µM (inactive) | 46.6 µM (inactive) | 16.4 µM (inactive) | – | 18.8 µM (inactive) | 13.7 µM (inactive) | 14.8 µM (inactive) | 21.2 µM (inactive) | 23.7 µM (inactive) | 79.6 µM (inactive) | 17.7 µM (inactive) | 20.2 µM (inactive)
10 | CN(CCNC(=O)c1nn(-c2ccc(Cl)cc2Cl)c2c1Cc1ccccc1-2)CCNC(=O)c1nn(-c2ccc(Cl)cc2Cl)c2c1Cc1ccccc1-2 | 2.27 µM (inactive) | 1.85 µM (inactive) | 2.07 µM (inactive) | 2.94 µM (inactive) | 1.85 µM (inactive) | 1.62 µM (inactive) | 3.39 µM (inactive) | 1.51 µM (inactive) | 3.49 µM (inactive) | 3.29 µM (inactive) | 1.81 µM (inactive) | – | 1.55 µM (inactive) | 3.77 µM (inactive) | 20 µM (inactive) | 6.31 µM (inactive) | 2.19 µM (inactive) | 1.75 µM (inactive) | 2.1 µM (inactive) | –
11 | C=C(CN(C)C)C1(c2ccccc2)CC2(CCCC2)C(=O)O1 (stereo not given) | 20.6 µM (inactive) | > 100 µM (inactive) | > 100 µM (inactive) | 23.9 µM (inactive) | > 100 µM (inactive) | 88.3 µM (inactive) | – | 56.4 µM (inactive) | > 100 µM (inactive) | > 100 µM (inactive) | 28.2 µM (inactive) | – | 23.7 µM (inactive) | > 100 µM (inactive) | > 100 µM (inactive) | > 100 µM (inactive) | 24.2 µM (inactive) | > 100 µM (inactive) | > 100 µM (inactive) | > 100 µM (inactive)

From ChEMBL document CHEMBL1201862, “PubChem BioAssay data set” (2004)
